Measured values from article PMC7787448, “Development of an orally-administrable tumor vasculature-targeting therapeutic using annexin A1-binding D-peptides” (PLoS ONE, 2021).
Values joined by “and” are separate entries in the source; they are usually repeats but may differ in a detail not shown here. Identical values can stand only once. Each block holds one molecule with its values, some of them ahead of it. Non-standard residues stand in square brackets, D forms with d. Residues, ends and D or L forms follow the SMILES beside them. No end group written: not given here. *: point of attachment. Biotin = O=C1N[C@H]2[C@H](CS[C@H]2CCCCC(=O)*)N1

Experiments:
[1] = target: T1, synthetic human MC16 peptide (ANXA1 N-terminus) (Homo sapiens, UniProt P04083); experiment: Plate binding assay of biotinylated dTIT7 to MC16-coated wells (streptavidin-peroxidase, A450); conditions: N-terminal biotinylated dTIT7 added to MC16-coated plastic wells, peroxidase-streptavidin colour reaction, read-out: Kd of dTIT7 bound to WT MC16
T1 construct: chemically synthesized ANXA1 N-terminus (1–15 residues plus a cysteine at 16); purchased Bio-Synthesis (Lewisville, TX); host or cells: chemical synthesis
Experimental: To assess dTIT7 binding, wells of Sulfhydryl-BIND Surface Maleimide plates (Corning) were coated 20 hours with wild type (WT) and mutant L-MC16 in water at 4°C. After washing with PBS containing 0.02% Tween 20 (PBST), wells were blocked 1 hour with 10% superblock (Thermo) in PBST at room temperature. Biotinylated dTIT7 (10 μg dissolved in 10% superblock in PBST (1 mL) prepared as above was added to each well at 100 μl/well and incubated 30 min at room temperature for. After three PBST washes, 100 μl streptavidin-peroxidase (0.2 μg/ml) in 10% superblock in PBST containing 2% bovine serum albumin was added to each well and incubated 30 min. After three PBST washes, 100 μL of the peroxidase substrate one-step-TMB (Thermo) was added and incubated until the color developed. The reaction was stopped by adding 100 μl 2N sulfuric acid, and absorbance at 450 nm monitored using an ELISA plate reader. […]
Fig 2 Binding of dTIT7 to an ANXA1 N-terminal domain peptide or to full-length ANXA1 protein. […] In A and B, biotinylated dTIT7 peptide (1 μg/mL) was added to each MC16-coated plastic well and binding of peptide to MC16 was detected by a peroxidase-conjugated streptavidin and peroxidase color reaction. […]

C6-Luc brain tumor = experiment: Near infra-red fluorescence whole body imaging of IRDye-conjugated D-peptides in brain tumor-bearing mice; format: in vivo, mouse; conditions: IRDye 800CW conjugates, tail vein, nude mice with C6-Luc brain tumors, IVIS imaging 15 min to 144 h
[2] = target: T2, recombinant full-length ANXA1 (Homo sapiens, UniProt P04083); set-up: method as in PMID 32921792; conditions: IF7 with ANXA1; cited from earlier work
T2 construct: Recombinant, full-length ANXA1 was expressed using the baculovirus expression system; honeybee melittin signal peptide (N, cleaved yes); His8-tag (N, cleaved yes); made in house; host or cells: Sf9 insect cells (baculovirus), secreted
T2 sequence (P04083 1-346): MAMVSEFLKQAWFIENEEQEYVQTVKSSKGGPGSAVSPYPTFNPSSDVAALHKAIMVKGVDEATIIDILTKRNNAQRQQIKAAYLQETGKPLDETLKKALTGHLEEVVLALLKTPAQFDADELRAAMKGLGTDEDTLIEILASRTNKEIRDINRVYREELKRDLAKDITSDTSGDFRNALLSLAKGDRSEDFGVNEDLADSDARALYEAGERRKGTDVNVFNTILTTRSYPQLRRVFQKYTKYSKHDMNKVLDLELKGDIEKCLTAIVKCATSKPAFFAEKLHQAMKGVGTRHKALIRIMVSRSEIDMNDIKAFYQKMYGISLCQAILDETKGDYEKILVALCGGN

Annexin A1 = target: T3, Annexin A1 (Homo sapiens, UniProt P04083); experiment: QCM
T3 chain: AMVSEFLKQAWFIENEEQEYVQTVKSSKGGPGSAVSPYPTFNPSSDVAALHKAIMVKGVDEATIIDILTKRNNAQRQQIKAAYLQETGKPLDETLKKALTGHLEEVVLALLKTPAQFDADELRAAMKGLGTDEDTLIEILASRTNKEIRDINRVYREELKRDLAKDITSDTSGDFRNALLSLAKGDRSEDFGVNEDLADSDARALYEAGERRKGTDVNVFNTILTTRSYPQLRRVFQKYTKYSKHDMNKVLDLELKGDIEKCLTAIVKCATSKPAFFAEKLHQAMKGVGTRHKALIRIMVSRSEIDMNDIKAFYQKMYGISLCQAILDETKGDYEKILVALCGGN

[3] = target: T4, ANXA1 N-terminal peptide L-MC16 (Homo sapiens); experiment: plate binding assay (ELISA)
T4 chain: MAMVSEFLKQAWFIEC

Kd [1]: 8.5 nM and 8.56 nM
Molecule: CC[C@@H](C)[C@@H](NC(=O)[C@H](N)[C@H](C)O)C(=O)N[C@@H](C(=O)N[C@H](Cc1c[nH]c2ccccc12)C(=O)N1CCC[C@@H]1C(=O)N[C@@H](C(=O)N[C@H](CCSC)C(=O)O)[C@H](C)O)[C@H](C)O [dTIT7]

Molecule: CC(C)C[C@@H](NC(=O)[C@@H](CC(C)C)NC(=O)[C@@H](CO)NC(=O)[C@H](NC(=O)[C@H]1CCCN1C(=O)[C@H](N)CO)[C@H](C)O)C(=O)N[C@H](Cc1ccccc1)C(=O)O [dSPT7] (H-[dS][dP][dT][dS][dL][dL][dF]-OH; N-terminus and C-terminus assumed)
Localization of near infra-red fluorescence after intravenous injection (C6-Luc brain tumor): signals in brain, kidney and other organs

Molecule: CC(C)C[C@@H](N)C(=O)N[C@H](CC(C)C)C(=O)N[C@H](CO)C(=O)N[C@H](Cc1c[nH]c2ccccc12)C(=O)N1CCC[C@@H]1C(=O)N[C@H](CO)C(=O)N[C@H](C)C(=O)O [dLLS7] (H-[dL][dL][dS][dW][dP][dS][dA]-OH; N-terminus and C-terminus assumed)
Localization of near infra-red fluorescence after intravenous injection (C6-Luc brain tumor): signals in brain, kidney and other organs

Molecule: CSCC[C@@H](N)C(=O)N1CCC[C@@H]1C(=O)N[C@@H](C(=O)N[C@H](CC(C)C)C(=O)N[C@@H](C(=O)N[C@H](Cc1ccccc1)C(=O)N[C@H](CCCNC(=N)N)C(=O)O)[C@H](C)O)[C@H](C)O [dMPT7] (H-[dM][dP][dT][dL][dT][dF][dR]-OH; N-terminus and C-terminus assumed)
Localization of near infra-red fluorescence after intravenous injection (C6-Luc brain tumor): signals in brain, kidney and other organs

Molecule: IFLLWQR (linear all-L peptide; any N-terminal Cys/linker or conjugate left out) [IF7]
Kd [2]: 63.8 nM

Kd (Annexin A1): 31.2 nM
Molecule: [dL][dR][dF][dP][dT][dV][dL] [dLRF7]

Kd [3]: 8.5 nM
Molecule: Biotin-[dT][dI][dT][dW][dP][dT][dM]

Kd (Annexin A1): 46.6 nM
Molecule: [dT][dI][dT][dW][dP][dT][dM]
